Patent US20250333419A1, “BICYCLIC COMPOUNDS AS INHIBITORS OF WRN” (Incyte Corporation, priority 2023, published 2025)

What was measured:
[1] = target: T1, WRN (Homo sapiens, UniProt Q14191); test: WRN ATPase activity assay (ADP-Glo); assay type: biochemical; conditions: IC50, 1-hr pre-incubation with enzyme; geometric means of at least 2 independent replicates
T1 construct: A His-tagged construct of WRN (AA S2-S1235) was produced and used for the ATPase assay; His; made in house; host or cells: Sf9 insect cells (baculovirus)
Protocol: Compounds of the Examples were tested for WRN ATPase activity. WRN ATPase activity catalyzes ATP hydrolysis to produce ADP and phosphate. DNA encoding the target protein, 6×HIS-TEV-WRN-517-945, was produced, cloned and transfected as detailed in Example D. The amount of ADP produced was measured using ADP-Glo™ Kinase Assay kit from Promega Corporation in a Greiner white regular volume 384 wells assay plate (Greiner #781075). Data was normalized to a standard curve generated using various ADP concentrations and the corresponding luminescent signal intensities at each concentration. The assay conditions were optimized for enzyme concentration (WRN), substrate concentrations (ATP & dsDNA), and the linearity of the ATPase reaction, in the following assay buffer: 50 mM Tris-HCl, pH-7.5, 2 mM MgCl2, 50 mM NaCl, 1 mM EGTA, 0.01% P-20, 0.05% BSA, and 2 mM DTT prepared with nuclease free water.
A serial dilution (1:3 scheme) of the compounds were prepared in neat DMSO, with 100 nL of the compounds dispensed in the 384 wells assay plate. An 1-hr pre-incubation of the compounds with enzyme was included. A His-tagged construct of WRN (AA S2-S1235) was produced and used for the ATPase assay. Maximum inhibition control wells were set up with the addition of only assay buffer, and no inhibition control wells were set up with neat DMSO without test compounds. The reaction was initiated by addition of 5 μL substrate mix (200 μM ultrapure ATP, and 50 nM dsDNA prepared in assay buffer) and incubated at 25° C. for 35 min. A forked dsDNA oligomer substrate was prepared by annealing equal amounts of oligo GPat-1 ([BHQ2][…]) and oligo GPat-2 ([…][TAM]) and was used as dsDNA substrate for WRN ATPase assay. A typical ATPase reaction consists of 25 nM forked dsDNA, 100 μM ATP, and 1 nM WRN prepared in assay buffer. The WRN ATPase reaction was stopped by the addition of 5 μL of ADP-Glo Reagent from ADP-Glo™ Kinase Assay kit and incubated for 40 min to deplete the unreacted ATP. Afterwards, 5 μL of Kinase Detection Reagent from the ADP-Glo™ Kinase Assay kit was added and incubated for 1 hr for the development of luminescence signal.
Luminesce signals were measured on BMG PHERAstar FSX using luminescence protocol. Data analysis was carried out using Genedata software following % of control normalization. Fitting parameters include dose response IC50, Hill slope (n), maximum inhibition (S∞), and minimum inhibition (S0). The reported IC50 values for compounds in this invention are the geometric means of at least 2 independent replicates.

[2] = target: T1, WRN; test: WRN Helicase activity assay (fluorescence DNA unwinding); assay type: biochemical; conditions: IC50, 1-hr pre-incubation with enzyme; geometric means of at least 2 independent replicates
Protocol: Compounds of the examples were tested for WRN helicase activity. DNA encoding the target protein, 6×HIS-TEV-WRN-517-945, was produced, cloned and transfected as detailed in Example D. To determine the inhibitory properties of the compounds, a 384 wells plate-based Helicase assay was set up to measure the extent of DNA unwinding (Helicase) activity of WRN. The WRN Helicase assay was designed to measure increase in fluorescence signal using a fluorescence based, donor-quencher paired forked dsDNA oligomer substrate (custom synthesis from Sigma-Aldrich) prepared by annealing equal amounts of oligo GPat-1 ([BHQ2][…]) and oligo GPat-2 ([…][TAM]). Continuous measurement of fluorescent signal was used to optimize the buffer conditions, concentration of enzyme (WRN), concentration of substrates (ATP & dsDNA), and the linearity of the Helicase reaction. All solutions were prepared in the following assay buffer: 50 mM Tris-HCl, pH-7.5, 2 mM MgCl2, 50 mM NaCl, 1 mM EGTA, 0.01% P-20, 0.05% BSA, and 2 mM DTT prepared with nuclease free water.
A serial dilution (1:3 scheme) of the compounds was prepared in neat DMSO and 100 nL of the compounds was dispensed in the Greiner black low volume (Greiner #784076) 384 wells assay plate. An 1-hr pre-incubation of the compounds with enzyme was included. A His-tagged construct of WRN (AA S2-S1235) was produced and used for the ATPase assay. Maximum inhibition control wells were set up with the addition of only assay buffer, and no inhibition control wells were set up with neat DMSO without test compounds. The reaction was initiated by addition of 5 μL substrate mix (200 μM ultrapure ATP, and 50 nM dsDNA prepared in assay buffer) and incubated at 25° C. for 35 min. A typical Helicase reaction consists of 25 nM forked dsDNA, 100 μM ATP, and 1 nM WRN prepared in assay buffer. The WRN Helicase reaction was quenched by the addition of 5 μL ‘STOP’ solution containing 100 mM EDTA (final EDTA concentration 33.33 mM) prepared in assay buffer. The plates were read on BMG PHERAstar FSX using 540/590 module to measure an increase of fluorescence. Data analysis was carried out using the Genedata software following % of control normalization. Fitting parameters include dose response IC50, Hill slope (n), maximum inhibition (S∞), and minimum inhibition (S0). The reported IC50 values for compounds in this invention are the geometric means of at least 2 independent replicates.

T1 sequence (Q14191 2-1235): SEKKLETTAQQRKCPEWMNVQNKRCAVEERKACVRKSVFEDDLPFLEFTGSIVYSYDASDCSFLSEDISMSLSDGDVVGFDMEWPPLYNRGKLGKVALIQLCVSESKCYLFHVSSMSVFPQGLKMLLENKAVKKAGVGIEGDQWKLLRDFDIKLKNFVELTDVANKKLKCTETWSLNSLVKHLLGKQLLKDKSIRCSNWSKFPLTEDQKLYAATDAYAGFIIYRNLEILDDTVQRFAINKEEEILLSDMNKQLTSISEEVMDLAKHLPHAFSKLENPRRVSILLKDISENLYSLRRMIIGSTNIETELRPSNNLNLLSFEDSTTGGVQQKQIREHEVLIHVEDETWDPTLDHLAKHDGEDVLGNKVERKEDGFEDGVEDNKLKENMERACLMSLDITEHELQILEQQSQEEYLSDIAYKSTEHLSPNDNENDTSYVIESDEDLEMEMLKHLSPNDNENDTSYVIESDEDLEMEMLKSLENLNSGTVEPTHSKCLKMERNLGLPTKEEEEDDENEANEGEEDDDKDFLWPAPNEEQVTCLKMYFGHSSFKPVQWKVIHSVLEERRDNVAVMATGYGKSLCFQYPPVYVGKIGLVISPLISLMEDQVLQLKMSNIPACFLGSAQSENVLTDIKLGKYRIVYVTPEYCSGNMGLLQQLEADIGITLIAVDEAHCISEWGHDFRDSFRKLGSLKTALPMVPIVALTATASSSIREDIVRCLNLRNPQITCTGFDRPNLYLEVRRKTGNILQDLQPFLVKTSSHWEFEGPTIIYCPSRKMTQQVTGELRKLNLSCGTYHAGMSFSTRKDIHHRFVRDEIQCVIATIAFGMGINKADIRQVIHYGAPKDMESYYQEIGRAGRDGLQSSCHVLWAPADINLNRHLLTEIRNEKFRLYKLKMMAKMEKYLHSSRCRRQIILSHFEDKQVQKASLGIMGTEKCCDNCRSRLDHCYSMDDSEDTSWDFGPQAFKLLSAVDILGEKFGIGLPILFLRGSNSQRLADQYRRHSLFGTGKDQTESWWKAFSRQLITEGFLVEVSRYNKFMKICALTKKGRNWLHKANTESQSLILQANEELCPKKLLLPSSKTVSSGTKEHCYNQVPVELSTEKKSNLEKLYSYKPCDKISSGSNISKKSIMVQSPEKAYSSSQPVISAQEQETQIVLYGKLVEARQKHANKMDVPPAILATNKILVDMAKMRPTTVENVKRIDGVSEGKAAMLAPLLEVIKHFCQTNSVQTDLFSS

IC50 [1] [nM]	IC50 [2] [nM]	Structure (SMILES)
< 100	< 100	C=CC(=O)Nc1cc(C)ccc1-c1c(CC)n(CC(=O)Nc2ccc(C(F)(F)F)cc2)c2nc(C3=CCOCC3)nn2c1=O [Example 8, N-(2-(2-(3,6-Dihydro-2H-pyran-4-yl)-5-ethyl-7-oxo-4-(2-oxo-2-((4-(trifluoromethyl)phenyl)amino)ethyl)-4,7-dihydro-[1,2,4]triazolo[1,5-a]pyrimidin-6-yl)-5-methylphenyl)acryl amide]
< 100	< 100	C=CC(=O)Nc1cc(F)ccc1-c1c(CC)n(CC(=O)Nc2ccc(C(F)(F)F)cc2)c2nc(C3=CCOCC3)nn2c1=O [Example 13, N-(2-(2-(3,6-Dihydro-2H-pyran-4-yl)-5-ethyl-7-oxo-4-(2-oxo-2-((4-(trifluoromethyl)phenyl)amino)ethyl)-4,7-dihydro-[1,2,4]triazolo[1,5-a]pyrimidin-6-yl)-5-fluorophenyl)acryl amide]
100 to 500	100 to 500	C=CC(=O)Nc1ccccc1-c1c(CC)n(CC(=O)Nc2ccc(C(F)(F)F)cc2)c2nc(C3CCC3)nn2c1=O [Example 19, N-(2-(2-Cyclobutyl-5-ethyl-7-oxo-4-(2-oxo-2-((4-(trifluoromethyl)phenyl)amino)ethyl)-4,7-dihydro-[1,2,4]triazolo[1,5-a]pyrimidin-6-yl)phenyl)acrylamide]
500 to 1000	500 to 1000	C=CC(=O)Nc1ccc(C)cc1-c1c(CC)n(CC(=O)Nc2ccc(C(F)(F)F)cc2)c2nc(C3=CCOCC3)nn2c1=O [Example 9, N-(2-(2-(3,6-Dihydro-2H-pyran-4-yl)-5-ethyl-7-oxo-4-(2-oxo-2-((4-(trifluoromethyl)phenyl)amino)ethyl)-4,7-dihydro-[1,2,4]triazolo[1,5-a]pyrimidin-6-yl)-4-methylphenyl)acryl amide]
500 to 1000	500 to 1000	C=CC(=O)Nc1ccccc1-c1c(CC)n(CC(=O)Nc2ccc(C(F)(F)F)cc2)c2nc(C)nn2c1=O [Example 18, N-(2-(5-Ethyl-2-methyl-7-oxo-4-(2-oxo-2-((4-(trifluoromethyl)phenyl)amino)ethyl)-4,7-dihydro-[1,2,4]triazolo[1,5-a]pyrimidin-6-yl)phenyl)acrylamide]
< 100	< 100	C=CC(=O)N1CCc2cccc(-c3c(CC)n(CC(=O)Nc4ccc(C(F)(F)F)cc4)c4nc(C5=CCOCC5)nn4c3=O)c21 [Example 15, 2-(6-(1-Acryloylindolin-7-yl)-2-(3,6-dihydro-2H-pyran-4-yl)-5-ethyl-7-oxo-[1,2,4]triazolo[1,5-a]pyrimidin-4(7H)-yl)-N-(4-(trifluoromethyl)phenyl)acetamide]
< 100	< 100	C=CS(=O)(=O)Nc1ccccc1-c1c(CC)n(CC(=O)Nc2ccc(C(F)(F)F)cc2)c2nc(C3=CCOCC3)nn2c1=O [Example 2, 2-(2-(3,6-Dihydro-2H-pyran-4-yl)-5-ethyl-7-oxo-6-(2-(vinylsulfonamido)phenyl)-[1,2,4]triazolo[1,5-a]pyrimidin-4(7H)-yl)-N-(4-(trifluoromethyl)phenyl)acetamide]
< 100	< 100	C=CC(=O)Nc1cc(Cl)ccc1-c1c(CC)n(CC(=O)Nc2ccc(C(F)(F)F)cc2)c2nc(C3=CCOCC3)nn2c1=O [Example 10, N-(5-Chloro-2-(2-(3,6-dihydro-2H-pyran-4-yl)-5-ethyl-7-oxo-4-(2-oxo-2-((4-(trifluoromethyl)phenyl)amino)ethyl)-4,7-dihydro-[1,2,4]triazolo[1,5-a]pyrimidin-6-yl)phenyl)acrylamide]
100 to 500	100 to 500	C=CC(=O)Nc1ccccc1-c1c(CC)n(CC(=O)Nc2ccc(C(F)(F)F)cc2)c2nc(C3CCNCC3)nn2c1=O [Example 24, N-(2-(5-Ethyl-7-oxo-4-(2-oxo-2-((4-(trifluoromethyl)phenyl)amino)ethyl)-2-(piperidin-4-yl)-4,7-dihydro-[1,2,4]triazolo[1,5-a]pyrimidin-6-yl)phenyl)acrylamide]
< 100	< 100	C=CC(=O)Nc1cc(C(F)(F)F)ccc1-c1c(CC)n(CC(=O)Nc2ccc(C(F)(F)F)cc2)c2nc(C3=CCOCC3)nn2c1=O [Example 12, N-(2-(2-(3,6-Dihydro-2H-pyran-4-yl)-5-ethyl-7-oxo-4-(2-oxo-2-((4-(trifluoromethyl)phenyl)amino)ethyl)-4,7-dihydro-[1,2,4]triazolo[1,5-a]pyrimidin-6-yl)-5-(trifluoromethyl)phenyl)acrylamide]
